Results reported in patent publication US20090149494A1, “THERAPEUTIC USE OF IMIDAZO[1,2-a]PYRIDINE-2-CARBOXAMIDE DERIVATIVES” (SANOFI-AVENTIS, priority 2006, published 2009).

Assays:
murine Nurr1 receptor = molecular target: T1, murine Nurr1 receptor (Mus musculus, UniProt Q06219); test: In vitro activity on N2A cells (NBRE-luciferase reporter); format: cell-based; settings: N2A-8NBRE-luciferase cells, 24 hours incubation
T1 construct: endogenously expressing the murine Nurr1 receptor; host or cells: Neuro-2A (N2A) mouse neuroblastoma cells stably transfected with 8NBRE-luciferase
Method: The tests consisted in evaluating the in vitro activity of the compounds of the invention on a cell line (N2A) endogenously expressing the murine Nurr1 receptor and stably transfected with the NOT binding response element (NBRE) coupled to the luciferase reporter gene. The EC50 values are between 0.01 and 1000 nM. The tests were performed according to the procedure described hereinbelow.
The cell line Neuro-2A is obtained from a standard commercial source (ATCC). The clone Neuro-2A was obtained from a spontaneous tumor originating from a strain of albino mice A by R. J Klebe et al. This line Neuro-2A is then stably transfected with 8NBRE-luciferase. The N2A-8NBRE cells are cultured to the point of confluence in 75 cm^2 culture flasks containing DMEM supplemented with 10% fetal calf serum, 4.5 g/L of glucose and 0.4 mg/ml of geneticin. After culturing for one week, the cells are recovered with 0.25% trypsin for 30 seconds and then resuspended in DMEM without phenol red, containing 4.5 g/L of glucose and 10% Hyclone defatted serum, and placed in white, transparent-based 96-well plates. The cells are deposited at a rate of 60 000 per well in 75 μL for 24 hours before adding the products. The products are applied in 25 μL and incubated for a further 24 hours. […] The plates are then measured in a microplate luminescence counter, after having been sealed with an adhesive film. […]

human NOT receptor = test: Binding to the human NOT receptor by SPR (Biacore); settings: immobilized GST-NOT (NOT-FL) and His-Thr-NOT 329-598, 3.75 to 0.1 μM, 4° C.
Method: The direct binding between compounds of the invention and the human NOT receptor was evaluated using the SPR (surface plasmon resonance) technique. In this test, the protein is immobilized covalently on the matrix and the test molecule is injected into the chamber containing the sensor chip. The signal is directly proportional to the amount of product bound to the protein. The binding tests were performed in a Biacore S51 machine (Biacore Inc., Piscataway N.J.). The entire GST-NOT protein (NOT-FL) was supplied by Invitrogen (PV3265). The domain for binding to the NOT ligand (His-Thr-NOT 329-598) was expressed and purified as described in Nature 423, 555-560. The two proteins, diluted to a concentration of 20 μg/ml in pH 5.0 acetate buffer containing 5 mM of DTT, were immobilized on a surface of carboxymethyl 5′ dextran (CM5 sensor chip, Biacore Inc.) via amine coupling according to the protocol recommended by Biacore, eluting with an HBS-N buffer (10 mM HEPES, 0.15 M NaCl, 3 mM EDTA, pH 7.4). Approximately 10 000-15 000 resonance units (R^U) of the proteins are captured on the surface of the sensor chip CM5. […] The dissociation was recorded for 5 minutes without any other surface regeneration procedure. […]

T1 sequence (Q06219 whole entry): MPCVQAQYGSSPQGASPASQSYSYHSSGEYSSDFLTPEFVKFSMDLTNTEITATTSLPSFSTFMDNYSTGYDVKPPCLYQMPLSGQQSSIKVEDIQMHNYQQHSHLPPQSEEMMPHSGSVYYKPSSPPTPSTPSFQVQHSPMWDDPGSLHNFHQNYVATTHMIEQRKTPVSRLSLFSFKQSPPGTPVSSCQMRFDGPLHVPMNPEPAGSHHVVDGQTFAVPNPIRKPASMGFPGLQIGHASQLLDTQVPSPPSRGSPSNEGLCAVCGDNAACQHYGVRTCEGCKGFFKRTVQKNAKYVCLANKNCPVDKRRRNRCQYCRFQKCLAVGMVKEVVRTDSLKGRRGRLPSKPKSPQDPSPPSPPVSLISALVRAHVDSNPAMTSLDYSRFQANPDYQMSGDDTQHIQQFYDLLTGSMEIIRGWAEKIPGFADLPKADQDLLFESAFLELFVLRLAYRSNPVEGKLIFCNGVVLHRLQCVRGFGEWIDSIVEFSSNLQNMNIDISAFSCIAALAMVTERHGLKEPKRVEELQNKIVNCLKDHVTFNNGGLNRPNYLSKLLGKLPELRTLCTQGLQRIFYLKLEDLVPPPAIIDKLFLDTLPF

EC50 (murine Nurr1 receptor) | affinity (classified by maximum binding level and kinetic parameters of binding) (human NOT receptor) | SMILES
17 nM |  | O=C(Nc1ccc(F)cc1)c1cn2cc(Cl)ccc2n1 [compound 2]
5.5 nM | moderate affinity | O=C(Nc1ccccc1)c1cn2ccccc2n1 [compound 1]
